Laboratory results: publication PMC6395927, “Rufomycin Targets ClpC1 Proteolysis in Mycobacterium tuberculosis and M. abscessus” (Antimicrobial Agents and Chemotherapy, 2019)
In brackets after ≈: the same amount, converted by molar mass. Where two headings read alike, the source gives them in different places. Numbered stars: 1 amine (or outer) side, 2 acyl side, 3 side chain; on linkers, the order of the positions; unused ones are H or OH. Bridge positions count the residues as written; N and C are the ends. Square brackets hold non-standard residues; d marks the D form. Peptide text beside a SMILES is read from it. * marks the point of attachment. ξ: configuration not given here. NMeTrp(4-OMe) = CN[CH](Cc1c[nH]c2cccc(OC)c12)C(=O)O; X1 = O=C(C(N[*:1])C(O)c1ccccc1)[*:2]; NMeI = CC[CH](C)[CH](NC)C(=O)O; ξNMe2Val = CC(C)C(C(=O)*)N(C)C; NMeT = CN[CH](C(=O)O)[CH](C)O; NMeL = CN[CH](CC(C)C)C(=O)O; NMeV = CN[CH](C(=O)O)C(C)C

Assays:
M. kansasii (ATCC 12478) = assay: microbe, parasite or virus in culture; type: cell-based; details: Mycobacterium kansasii, ATCC12478
Vero cell (ATCC CRL-81) = assay: cells; type: cell-based; details: Chlorocebus sabaeus, 72 h
[1] = test system: M. smegmatis (ATCC 700084); assay: microbe, parasite or virus in culture; type: cell-based; details: Mycolicibacterium smegmatis, ATCC700084
[2] = test system: J774A.1 macrophage (ATCC TIB-67); assay: Cytotoxicity in mammalian cells (resazurin); type: cell-based, murine; details: Mus musculus, J774.A1; J774, 72 h
M. chelonae (ATCC 35752) = assay: microbe, parasite or virus in culture; type: cell-based, Mycobacterium chelonae; details: Mycobacteroides chelonae, ATCC35752
M. avium (ATCC 15769) = assay: microbe, parasite or virus in culture; type: cell-based; details: Mycobacterium avium, ATCC15769
[3] = test system: M. tuberculosis 5 global clade representatives; assay: microbe, parasite or virus in culture; type: cell-based; details: Mycobacterium tuberculosis, read-out: MICs
M. marinum (ATCC 927) = assay: microbe, parasite or virus in culture; type: cell-based; details: Mycobacterium marinum, ATCC927
[4] = test system: Escherichia coli (ATCC 25922); assay: MIC against nonmycobacteria (OD570); type: cell-based; details: ATCC25922, E. coli
Text: (§1) Standard compounds used were ampicillin (AMP) and gentamicin (GEN). […] Amphotericin B (AmphB) and ketoconazole (KETO) were used as standard compounds.

[5] = test system: Candida albicans (ATCC 10231); assay: MIC against nonmycobacteria (OD570); type: cell-based; details: ATCC10231, C. albicans
Text: as §1

[6] = test system: Staphylococcus aureus (ATCC 29213); assay: MIC against nonmycobacteria (OD570); type: cell-based; details: ATCC29213, S. aureus
Text: as §1

[7] = test system: M. tuberculosis strain H37Rv (ATCC 27294); assay: microbe, parasite or virus in culture; type: cell-based, Mycobacterium tuberculosis; details: Mycobacterium tuberculosis
M. bovis (ATCC 35734) = assay: microbe, parasite or virus in culture; type: cell-based; details: Mycobacterium tuberculosis variant bovis, ATCC35734
[8] = test system: M. abscessus (ATCC 19977); assay: microbe, parasite or virus in culture; type: cell-based, Mycobacterium abscessus; details: Mycobacteroides abscessus
ClpC1 = ClpC1 (Mycobacterium tuberculosis, UniProt P9WPC9); type: biochemical, M. tuberculosis
ClpC1/P1/P2 complex = ClpC1/P1/P2 complex (Mycobacterium tuberculosis, UniProt P9WPC9); type: biochemical, M. tuberculosis
[9] = test system: nonreplicating cultures of M. tuberculosis; assay: microbe, parasite or virus in culture; type: cell-based, Mycobacterium tuberculosis; details: Mycobacterium tuberculosis
M. tuberculosis = assay: microbe, parasite or virus in culture; type: cell-based, Mycobacterium tuberculosis; details: Mycobacterium tuberculosis, read-out: MBC (minimum bactericidal concentration)
[10] = ECU, micelle formulation; cited from earlier work
[11] = test system: MDA-MB-435 melanoma cells; assay: Cytotoxicity against cancer cell lines (CellTiter 96); type: cell-based; details: Homo sapiens; MDA-MB-435, paclitaxel column
Experimental: (§2) Human melanoma cancer cells (MDA-MB-435), human breast cancer cells (MDA-MB-231), and human ovarian cancer cells (OVCAR3) were purchased from the American Type Culture Collection (Manassas, VA). Each cell line was propagated at 37°C in 5% CO2 in RPMI 1640 medium supplemented with FBS (10%), penicillin (100 U/ml), and streptomycin (100 μg/ml). Cells in log phase were harvested by trypsinization, followed by two washing cycles to remove all traces of enzyme. A total of 5,000 cells were seeded per well of a 96-well clear, flat-bottom plate (Microtest 96; Falcon) and incubated overnight (37°C in 5% CO2). Samples dissolved in DMSO were then diluted and added to the respective wells. The cells were incubated in the presence of test substance for 72 h at 37°C and evaluated for viability with a commercial absorbance assay (CellTiter 96 AQueous One Solution cell proliferation assay; Promega Corp., Madison, WI) that measured viable cells. IC50 values are expressed in micromolar values relative to the solvent (DMSO) control.

[12] = test system: OVCAR 3 ovarian cancer cells; assay: as above; type: cell-based; details: Homo sapiens; OVCAR 3, paclitaxel column
Experimental: as §2

[13] = test system: MDA-MB-231 breast cancer cells; assay: as above; type: cell-based; details: Homo sapiens; MDA-MB-231, paclitaxel column
Experimental: as §2

[14] = ATCC19977, M. abscessus, read-out: MIC

Chain of ClpC1 (P9WPC9 whole entry): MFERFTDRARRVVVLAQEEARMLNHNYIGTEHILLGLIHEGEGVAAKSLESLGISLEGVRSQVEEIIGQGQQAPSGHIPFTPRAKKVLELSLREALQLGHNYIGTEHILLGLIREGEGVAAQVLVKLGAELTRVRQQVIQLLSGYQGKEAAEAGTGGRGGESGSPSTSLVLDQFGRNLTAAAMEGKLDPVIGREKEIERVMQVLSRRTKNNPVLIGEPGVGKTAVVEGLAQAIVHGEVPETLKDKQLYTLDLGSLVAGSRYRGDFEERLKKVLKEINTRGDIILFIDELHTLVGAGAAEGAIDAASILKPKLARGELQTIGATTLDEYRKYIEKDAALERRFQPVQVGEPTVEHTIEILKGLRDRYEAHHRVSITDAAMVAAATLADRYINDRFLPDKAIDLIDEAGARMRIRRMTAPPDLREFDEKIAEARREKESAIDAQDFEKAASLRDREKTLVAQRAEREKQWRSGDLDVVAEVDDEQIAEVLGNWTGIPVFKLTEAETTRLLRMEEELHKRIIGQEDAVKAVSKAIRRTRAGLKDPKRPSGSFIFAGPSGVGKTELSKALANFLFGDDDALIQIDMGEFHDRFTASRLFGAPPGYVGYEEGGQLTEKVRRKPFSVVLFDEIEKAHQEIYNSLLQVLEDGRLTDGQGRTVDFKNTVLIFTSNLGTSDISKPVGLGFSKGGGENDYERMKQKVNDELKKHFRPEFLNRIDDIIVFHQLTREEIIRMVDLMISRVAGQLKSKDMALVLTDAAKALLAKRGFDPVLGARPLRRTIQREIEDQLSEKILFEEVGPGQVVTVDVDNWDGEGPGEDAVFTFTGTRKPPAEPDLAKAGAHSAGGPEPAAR
Chain of ClpC1/P1/P2 complex (P9WPC9 whole entry, one chain of several): as the sequence (P9WPC9 whole entry) above

In the case of `CO[C@H](c1ccccc1)[C@@H]1NC(=O)[C@H](C)NC(=O)[C@H](C[C@@H](C)CO)N(C)C(=O)[C@H]([C@H](O)c2cn(C(C)(C)[C@@H]3CO3)c3ccccc23)NC(=O)[C@H]([C@H](C)C=C(C)C)NC(=O)[C@H](CC(C)C)N(C)C(=O)[C@H](C(C)C)NC1=O` (stereo in doubt) [CYMA, cyclomarin A], the MIC (M. kansasii (ATCC 12478); M. kansasii, read-out: MIC) is reported as 1.11 µM (≈ 1.16 µg/mL), the IC50 (Vero cell (ATCC CRL-81)) is reported as greater than 50 µM and the MIC ([1]; M. smegmatis, read-out: MIC) is reported as 1.6 µM (≈ 1.67 µg/mL). The IC50 [2] was 19 µM, the MIC (M. chelonae (ATCC 35752); M. chelonae, read-out: MIC) was greater than 5 µM and the MIC (M. avium (ATCC 15769); M. avium, read-out: MIC) was 4.85 µM (≈ 5.06 µg/mL). The MIC [3] was 0.012 to 0.079 µM (≈ 0.0125 to 0.0824 µg/mL), the MIC (M. marinum (ATCC 927); M. marinum, read-out: MIC) was 0.58 µM (≈ 0.605 µg/mL) and the MIC [4] was greater than 10 µM. For the same compound, the MIC [5] was greater than 10 µM, the MIC [6] was greater than 10 µM and the MIC [7] was 0.094 µM (≈ 0.0981 µg/mL). For the same compound, the MIC (M. bovis (ATCC 35734)) was less than 0.02 µM and the MIC [8, 14] was greater than 5 µM.
With `CC1(C)S[C@@H]2[C@H](NC(=O)[C@H](N)c3ccccc3)C(=O)N2[C@H]1C(=O)O` [AMP, ampicillin] the MIC [4] was 16 µM (≈ 5.59 µg/mL) and the MIC [6] was 6.1 µM (≈ 2.13 µg/mL).
With `COc1nc2ccc(Br)cc2cc1[C@@H](c1ccccc1)[C@@](O)(CCN(C)C)c1cccc2ccccc12` [BDQ, bedaquiline] the MIC (M. kansasii (ATCC 12478); M. kansasii, read-out: MIC) was 0.029 µM (≈ 0.0161 µg/mL), the IC50 (Vero cell (ATCC CRL-81)) was 27 µM and the IC50 [2] was 20 µM. For the same compound, the MIC (M. chelonae (ATCC 35752); M. chelonae, read-out: MIC) was 0.46 µM (≈ 0.256 µg/mL), the MIC (M. avium (ATCC 15769); M. avium, read-out: MIC) was 0.049 µM (≈ 0.0272 µg/mL) and the MIC [3] was 0.017 to 0.11 µM (≈ 0.00944 to 0.0611 µg/mL). It also gave an MIC (M. marinum (ATCC 927); M. marinum, read-out: MIC) of 0.29 µM (≈ 0.161 µg/mL), an MIC [7] of 0.13 µM (≈ 0.0722 µg/mL) and an MIC (M. bovis (ATCC 35734)) of 0.1 µM (≈ 0.0556 µg/mL). For the same compound, the MIC [8, 14] was 0.96 µM (≈ 0.533 µg/mL).
In the case of `CCC(C)C(C(=O)NC1C(=O)N(C)C(C(C)O)C(=O)NC(C(C)C)C(=O)N(C)C(CC(C)C)C(=O)NC(C(C)C)C(=O)N(C)C(C(C)C)C(=O)N(C)C(Cc2c[nH]c3cccc(OC)c23)C(=O)NC(C(C)C)C(=O)NC(C(O)c2ccccc2)C(=O)NC(C(C)C)C(=O)OC1C)N(C)C(=O)C(NC(=O)C(C(C)C)N(C)C)C(C)C` (centres unmarked) [ECU, ecumicin] (ξNMe2Val-V[NMeI]T[NMeT]V[NMeL]V[NMeV][NMeTrp(4-OMe)]V[X1]V; ester 3-C; configuration not given here), the “effect on ClpC1 ATPase activity” value (ClpC1) is reported as “stimulates the ATPase activity”, the “effect on proteolytic activity of ClpC1/P1/P2 (FITC-casein degradation)” value (ClpC1/P1/P2 complex) is reported as “inhibits ClpC1 proteolysis” and the MBC [9] is reported as 1.5 µM (≈ 2.4 µg/mL). For the same compound, the MIC (M. kansasii (ATCC 12478); M. kansasii, read-out: MIC) was 4 µM (≈ 6.4 µg/mL), the MIC ([1]; M. smegmatis, read-out: MIC) was 1.7 µM (≈ 2.72 µg/mL) and the MBC (M. tuberculosis) was 0.34 µM (≈ 0.544 µg/mL). The MIC (M. chelonae (ATCC 35752); M. chelonae, read-out: MIC) was 0.97 µM (≈ 1.55 µg/mL), the MIC (M. avium (ATCC 15769); M. avium, read-out: MIC) was 0.35 µM (≈ 0.56 µg/mL) and the MIC [3] was 0.13 to 0.38 µM (≈ 0.208 to 0.608 µg/mL). It also gave an MIC (M. marinum (ATCC 927); M. marinum, read-out: MIC) of 0.95 µM (≈ 1.52 µg/mL), an MIC [4] greater than 32 µM and an MIC [5] greater than 32 µM. It also gave an MIC [6] greater than 32 µM, an MIC [7] of 0.16 µM (≈ 0.256 µg/mL) and an MIC (M. bovis (ATCC 35734)) of less than 0.2 µM. The MIC [8, 14] was greater than 63 µM and the terminal half-life [10] was 3 h.
`CNC(C)C1CCC(N)C(OC2C(N)CC(N)C(OC3OCC(C)(O)C(NC)C3O)C2O)O1` (centres unmarked) [GEN, gentamicin] gave an MIC [4] of 0.23 µM (≈ 0.11 µg/mL) and an MIC [6] of 0.33 µM (≈ 0.158 µg/mL).
Compound `CO[C@H]1/C=C/O[C@@]2(C)Oc3c(C)c(O)c4c(O)c(c(/C=N/N5CCN(C)CC5)c(O)c4c3C2=O)NC(=O)/C(C)=C\C=C\[C@H](C)[C@H](O)[C@@H](C)[C@@H](O)[C@@H](C)[C@H](OC(C)=O)[C@@H]1C` [RIF, rifampin] has an MIC (M. kansasii (ATCC 12478)) of 0.15 µM (≈ 0.123 µg/mL), an IC50 (Vero cell (ATCC CRL-81)) of 120 µM and an MIC [1] greater than 120 µM. It also gave an IC50 [2] of 95 µM, an MIC (M. chelonae (ATCC 35752)) greater than 4 µM and an MIC (M. avium (ATCC 15769)) of 0.16 µM (≈ 0.132 µg/mL). It also gave an MIC [3] of 0.01 to 0.027 µM (≈ 0.00823 to 0.0222 µg/mL), an MIC (M. marinum (ATCC 927)) of 0.05 µM (≈ 0.0411 µg/mL) and an MIC [7] of 0.04 µM (≈ 0.0329 µg/mL). It also gave an MIC (M. bovis (ATCC 35734)) of less than 0.02 µM and an MIC ([8]; ATCC19977) greater than 4 µM.
With `CC(=O)O[C@H]1C(=O)[C@@]2(C)[C@H]([C@H](OC(=O)c3ccccc3)[C@]3(O)C[C@H](OC(=O)[C@H](O)[C@@H](NC(=O)c4ccccc4)c4ccccc4)C(C)=C1C3(C)C)[C@]1(OC(C)=O)CO[C@@H]1C[C@@H]2O` [paclitaxel] the IC50 [11] was 0.0001 µM, the IC50 [12] was 0.0015 µM and the IC50 [13] was 0.17 µM.
